Source: patent US11331337B2, “Heparin and heparan sulphate oligosaccharides” (Agency for Science, Technology and Research, priority 2017, dated 2022)

How the values were obtained:
BMP-2 = molecular target: T1, BMP-2 (Homo sapiens, UniProt P12643); assay: Surface plasmon resonance BMP-2 competitive binding assay; conditions: 10 μg/mL pre-incubated with BMP-2 25 nM, applied to heparin-coated SPR chip
T1 construct: purchased R&D Systems Inc. (U.S.A.)
T1 sequence (P12643 283-396): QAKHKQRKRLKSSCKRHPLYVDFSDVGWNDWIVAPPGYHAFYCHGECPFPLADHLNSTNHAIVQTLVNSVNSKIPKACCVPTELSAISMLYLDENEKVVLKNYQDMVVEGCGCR
Method: Briefly, 20 mg heparin was biotinylated at free amine groups using 8.6 μM NHS-biotin in dimethyl sulfoxide, after which excess unreacted NHS-biotin was removed by passing the sample through two 7 kDa molecular weight cut-off Zeba spin desalting columns. […] Heparin oligosaccharides were used at a concentration of 10 μg/mL in HBS-EP 0.1% buffer (HBS-EP with 0.1% (v/v) Tween-20). […] The response was measured as a function of time at 25° C. R.U.s for the heparin surface were determined by subtracting the R.U. of the control (uncoated) flow channel from those of the heparin-biotin-coated flow channel. Representative sensorgrams from all competitive binding experiments may be found in supplementary information (FIG. 1). […] Data constitutes the mean±S.D. of three independent experiments.

C2C12 cells = assay: Alkaline phosphatase (ALP) activity assay in C2C12 cells; format: cell-based, murine; conditions: with BMP-2 100 ng/mL, 5 μg/mL, 3 days
Method: C2C12 cells were maintained as described above and seeded at 2×10^4 cells/cm2 in tissue culture treated 24-well plates. The cells were cultured in treatment media for 3 days, after which total protein was extracted and ALP activity was determined. Briefly, cells were washed with PBS and total protein extracted with RIPA buffer containing a protease inhibitor cocktail. Total protein concentration was determined using the BCA assay, then 7.5 μg of total protein per condition was combined with p-nitrophenylphosphate (Thermo-Fisher). […] Data represents mean±S.D. of three independent experiments.

dextran sulfate
percentage of BMP-2 sequestered in solution (reduction in response units vs. BMP-2 alone) (BMP-2): able to bind BMP-2 with high affinity
BMP-2-induced ALP activity (C2C12 cells): inhibited BMP-2 bioactivity in vitro
